Paper PMC3532118, “A Novel Muscarinic Antagonist R2HBJJ Inhibits Non-Small Cell Lung Cancer Cell Growth and Arrests the Cell Cycle in G0/G1” (PLoS ONE, 2012)
Where two headings read alike, the source gives them in different places.

How the values were obtained:
H1299 cells [1] = assay: Cell viability assay (SRB), H1299; assay type: cell-based, human
Method: (§3) Cells were seeded at a density of 6.0×10^3 cells/well in 96-well plates. […] The inhibitory effects of the antagonists on cell growth were determined using SRB assay, as described previously [37]. […] Each experiment was performed in six replicates and repeated for three times. Cells treated with solvent (DMSO) were used as a control, with viability set at 100%.

H1299 cells [2] = assay: Exogenous ACh combined with R2HBJJ, cell viability (SRB)
Method: To determine the correlation between cholinergic signal pathways and R2HBJJ-induced growth inhibition, exogenous AChR agonist ACh was used. The effects of ACh on the growth of H1299 and on R2HBJJ-induced growth inhibition were observed.
Cells were seeded at a density of 6.0×10^3 cells/well in 96-well plates. After overnight incubation, the cells were treated with R2HBJJ (1.6–100 µM) or other antagonists (0.3–100 µM) for 72 h. The inhibitory effects of the antagonists on cell growth were determined using SRB assay, as described previously. For the combination administration, the agonist was added 1 h before R2HBJJ. Each experiment was performed in six replicates and repeated for three times. Cells treated with solvent (DMSO) were used as a control, with viability set at 100%.
(§1) GraphPad Prism 5 software was used for statistical analysis. For competition binding and Guinea-pig tracheal contraction assay, the IC50 values were determined by using the non-linear curve-fitting program. The inhibition constants (Ki values) were calculated by using the Cheng-Prusoff equation. For the experiments of exogenous ACh combined with R2HBJJ, two-way ANOVA was used to compare the interaction of two treatment factors. Post-hoc analyses were performed with Bonferroni's tests for comparisons to controls. For the cell viability assay after siRNA transfection, one-way ANOVA followed by Dunnett's t test was used. A P value of less than 0.05 was considered statistically significant.

H1299 cells [3] = assay: cells
Method: as §1

A549 cells = assay: Cell viability assay (SRB), A549; assay type: cell-based; settings: Homo sapiens, read-out: 50% growth-inhibitory concentration (GI50), A549, 72 h, 100 µM highest concentration tested
Method: as §3

[4] = molecular target: T1, human muscarinic receptor M4 (Homo sapiens, UniProt P08173); assay: biochemical; assay type: binding; settings: mean ± SD
T1 construct: purchased Perkin Elmer Life and Analytical Sciences
T1 sequence (P08173 whole entry): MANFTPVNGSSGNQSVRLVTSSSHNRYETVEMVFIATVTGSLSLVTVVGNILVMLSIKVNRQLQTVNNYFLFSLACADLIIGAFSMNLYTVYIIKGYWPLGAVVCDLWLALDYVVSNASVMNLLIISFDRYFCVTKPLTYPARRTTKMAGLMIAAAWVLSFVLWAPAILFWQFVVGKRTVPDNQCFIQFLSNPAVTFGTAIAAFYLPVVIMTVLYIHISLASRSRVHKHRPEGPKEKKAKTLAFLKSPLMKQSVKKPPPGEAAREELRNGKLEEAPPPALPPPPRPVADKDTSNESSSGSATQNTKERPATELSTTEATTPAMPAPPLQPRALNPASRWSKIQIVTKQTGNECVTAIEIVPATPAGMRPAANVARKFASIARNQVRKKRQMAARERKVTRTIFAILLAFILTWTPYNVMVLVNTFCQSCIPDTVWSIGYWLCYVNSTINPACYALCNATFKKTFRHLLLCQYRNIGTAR
Method: (§2) Bound radioligand was separated from free by rapid vacuum filtration through GF/C glass fiber filters (Whatman). The filters were rinsed three times with ice cold PBS. After being dried, the fibers were placed in scintillation vials with 0.5 ml of BetaPlate Scint. Radioactivity trapped on the filters was quantified by a BECKMAN Beta counter. The assay was repeated three times with duplicate samples.
as §1, with “used.” for “used. A P value of less than 0.05 was considered statistically significant.”

BEP2D cells = assay: Cell viability assay (SRB), BEP2D; assay type: cell-based; settings: Homo sapiens, read-out: 50% growth-inhibitory concentration (GI50), 72 h, 100 µM highest concentration tested
Method: as §3

[5] = test system: cyclin D1-CDK4/6-Rb in H1299 cells; assay: Western blot of cell cycle regulatory proteins and Rb phosphorylation; assay type: cell-based, human
Method: Cell cycle transition from G1 to S is mainly activated by two different kinase composites: cyclin D1/CDK4, 6, and cyclin E, A/CDK2. Rb is the primary substrate of cyclin D-dependent kinase and plays a key role in the network of cell cycle regulation. To investigate the underlying molecular mechanisms of G0/G1 arrest induced by R2HBJJ, the time-dependent changes of several related cell cycle regulatory molecules were evaluated after treatment with 20 µM R2HBJJ in H1299 cells by using western blot analysis. […] The decrease of Rb phosphorylated at the position of Ser^807/811 occurred as early as 3 h after treatment and before apparent cell viability change. […] Further we evaluated the concentration response of Rb phosphorylation reduced after treatment with R2HBJJ for 48 h (Fig. 8B).
Cells were harvested and subjected to lysis in the buffer X (50 mM Tris, 270 mM NaCl, 1% Triton X-100, pH 7.4). Equal amounts of lysates (30 µg) were separated on 10% SDS-PAGE and then transferred to polyvinylidene difluoride membranes (Millipore). Membranes were then blocked with PBS buffer containing 5% low fat milk and 0.1% Tween 20 (PBST) for 1 h at room temperature and then incubated with primary antibodies (1∶1000–2000) overnight at 4°C. After being washed three times with PBST, membranes were incubated with peroxidase-conjugated secondary antibodies (1∶5000) for 1 h at room temperature. The membranes were washed with PBST again and developed with a pro-light HRP chemiluminescence detection kit (TianGen Biotech, China). β-actin was used as a loading control.

H460 cells = assay: Cell viability assay (SRB), H460; assay type: cell-based; settings: Homo sapiens, NCI-H460, read-out: 50% growth-inhibitory concentration (GI50), H460, 72 h
Method: as §3

[6] = molecular target: T2, human muscarinic receptor M5 (Homo sapiens, UniProt P08912); assay: Radioligand binding assay with [3H]NMS (saturation and competition), M5; settings: mean ± SD
T2 construct: purchased Perkin Elmer Life and Analytical Sciences
T2 sequence (P08912 whole entry): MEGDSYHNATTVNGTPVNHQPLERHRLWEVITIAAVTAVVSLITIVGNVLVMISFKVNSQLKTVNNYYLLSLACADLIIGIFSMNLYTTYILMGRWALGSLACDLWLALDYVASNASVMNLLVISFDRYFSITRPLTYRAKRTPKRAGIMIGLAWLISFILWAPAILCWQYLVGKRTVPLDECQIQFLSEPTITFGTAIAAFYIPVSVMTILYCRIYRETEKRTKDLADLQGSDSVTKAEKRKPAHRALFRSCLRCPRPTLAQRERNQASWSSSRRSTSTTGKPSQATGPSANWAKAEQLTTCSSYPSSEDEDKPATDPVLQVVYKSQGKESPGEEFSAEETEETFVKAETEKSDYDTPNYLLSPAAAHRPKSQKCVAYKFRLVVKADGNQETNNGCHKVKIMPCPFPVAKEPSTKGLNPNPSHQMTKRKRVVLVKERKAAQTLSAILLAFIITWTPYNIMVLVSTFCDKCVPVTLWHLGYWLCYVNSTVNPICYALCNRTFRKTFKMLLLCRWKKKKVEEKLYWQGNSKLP
Method: as §2, §1

H1299 cells [7] = assay: Cell cycle analysis by flow cytometry, H1299; assay type: cell-based, human; settings: H1299, 20 µM
Method: Alterations in cell cycle were determined by using flow cytometric assay. Cells were seeded at a density of 1×10^5 cells/well in six-well plates and synchronized by plating in RPMI-1640 containing 1% FBS for 24 h. For time-dependent response, cells were incubated in 2 ml fresh RPMI-1640 containing 10% FBS with 20 µM R2HBJJ for 24, 48, 72 h. For concentration-dependent response, cells were incubated for 48 h with R2HBJJ at final concentrations of 2.5, 5, 10, 15, 20 µM in 2 ml fresh RPMI-1640 containing 10% FBS. Fresh media added in the control well simultaneously. After treatment, the cells were harvested with trypsin, washed once with PBS, and then fixed in 70% ethanol overnight at 4°C. Before flow cytometry analysis, cells were stained with 200 µg/ml Ribonuclease A and 50 µg/ml propidium iodide (Sigma) for 30 min at room temperature away from light. 1×10^4 cells per sample were analyzed using a FACSCalibur flow cytometer (BD Biosciences). Data were evaluated using Modfit software.

[8] = molecular target: human muscarinic receptor M1 (Homo sapiens, UniProt P11229); assay: biochemical
Chain of human muscarinic receptor M1 (P11229 whole entry): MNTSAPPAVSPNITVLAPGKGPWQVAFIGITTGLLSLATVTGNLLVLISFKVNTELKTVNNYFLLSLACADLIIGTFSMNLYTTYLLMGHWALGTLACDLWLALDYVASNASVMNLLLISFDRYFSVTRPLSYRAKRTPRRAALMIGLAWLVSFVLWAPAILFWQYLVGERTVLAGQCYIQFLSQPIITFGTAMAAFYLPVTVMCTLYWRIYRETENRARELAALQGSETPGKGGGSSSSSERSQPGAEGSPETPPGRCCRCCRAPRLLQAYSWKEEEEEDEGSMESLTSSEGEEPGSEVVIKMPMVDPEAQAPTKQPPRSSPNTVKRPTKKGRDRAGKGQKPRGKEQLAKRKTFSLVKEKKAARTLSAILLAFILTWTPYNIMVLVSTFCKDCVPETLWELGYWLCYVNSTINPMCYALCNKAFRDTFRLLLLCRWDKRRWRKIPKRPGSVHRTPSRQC
Method: as §2, §1

[9] = molecular target: human muscarinic receptor M3 (Homo sapiens, UniProt P20309); assay: biochemical
Chain of human muscarinic receptor M3 (P20309 whole entry): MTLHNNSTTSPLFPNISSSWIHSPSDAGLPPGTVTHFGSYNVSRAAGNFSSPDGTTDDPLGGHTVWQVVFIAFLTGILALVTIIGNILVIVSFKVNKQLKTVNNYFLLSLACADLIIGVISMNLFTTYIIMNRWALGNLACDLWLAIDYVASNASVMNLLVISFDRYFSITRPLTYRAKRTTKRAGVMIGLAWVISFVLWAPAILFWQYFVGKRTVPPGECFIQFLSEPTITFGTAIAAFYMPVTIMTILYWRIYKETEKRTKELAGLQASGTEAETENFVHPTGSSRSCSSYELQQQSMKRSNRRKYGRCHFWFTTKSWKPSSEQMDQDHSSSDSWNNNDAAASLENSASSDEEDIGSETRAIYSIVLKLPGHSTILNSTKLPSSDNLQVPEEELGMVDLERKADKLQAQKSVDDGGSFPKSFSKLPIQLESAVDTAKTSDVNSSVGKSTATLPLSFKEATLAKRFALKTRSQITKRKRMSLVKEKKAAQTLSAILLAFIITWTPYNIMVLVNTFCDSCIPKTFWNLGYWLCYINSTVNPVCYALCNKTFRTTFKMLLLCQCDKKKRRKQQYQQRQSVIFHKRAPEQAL
Method: as §2, §1

[10] = molecular target: T3, human muscarinic receptor M2 (Homo sapiens, UniProt P08172); assay: Radioligand binding assay with [3H]NMS (saturation and competition), M2; settings: mean ± SD
T3 construct: purchased Perkin Elmer Life and Analytical Sciences
T3 sequence (P08172 whole entry): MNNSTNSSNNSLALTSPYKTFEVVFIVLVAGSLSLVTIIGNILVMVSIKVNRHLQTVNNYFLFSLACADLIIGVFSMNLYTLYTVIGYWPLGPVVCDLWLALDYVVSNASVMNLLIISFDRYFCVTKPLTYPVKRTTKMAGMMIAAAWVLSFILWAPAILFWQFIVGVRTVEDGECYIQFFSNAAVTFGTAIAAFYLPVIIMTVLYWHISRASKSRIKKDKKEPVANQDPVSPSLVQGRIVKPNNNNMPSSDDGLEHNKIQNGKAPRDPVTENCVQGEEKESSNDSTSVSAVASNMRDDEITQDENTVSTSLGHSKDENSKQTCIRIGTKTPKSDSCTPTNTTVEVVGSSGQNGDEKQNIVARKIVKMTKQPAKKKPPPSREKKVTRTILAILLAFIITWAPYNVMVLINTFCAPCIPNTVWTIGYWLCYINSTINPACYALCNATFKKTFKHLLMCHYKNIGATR
Method: as §2, §1

H157 cells = assay: Cell viability assay (SRB), H157; assay type: cell-based; settings: Homo sapiens, NCI-H157, read-out: 50% growth-inhibitory concentration (GI50), H157, 72 h
Method: as §3

[11] = H1299, 72 h, SRB, antagonists 0.3–100 µM, no exogenous agonist
[12] = Homo sapiens, NCI-H1299, 72 h, read-out: cell viability
[13] = 2.4 nM [3H]NMS, n = 3, read-out: IC50 inhibiting [3H]NMS binding
[14] = Cheng-Prusoff, n = 3, read-out: Ki inhibiting [3H]NMS binding

## CN1[C@@H]2CC[C@H]1C[C@@H](OC(=O)C(CO)c1ccccc1)C2 (stereo partly drawn) [atropine]
H1299 cells [1]
  effect on H1299 cell proliferation: no obvious effects on cell proliferation

## Br.CO[C@H]1CC=C2CCN3CCC4=C(CC(=O)OC4)[C@]23C1 [DhβE, Dihydro-β-erythroidine hydrobromide]
H1299 cells [1]; [11]
  effect on H1299 cell proliferation: no obvious effects on cell proliferation

## CN1CCN(CC(=O)N2c3ccccc3C(=O)Nc3cccnc32)CC1 [pirenzepine]
H1299 cells [1]; [11]
  effect on H1299 cell proliferation: no obvious effects on cell proliferation

## α-bungarotoxin [α-bgt]
H1299 cells [1]
  effect on H1299 cell proliferation: no obvious effects on cell proliferation

## NC(=O)C(c1ccccc1)(c1ccccc1)[C@@H]1CCN(CCc2ccc3c(c2)CCO3)C1 [darifenacin]
H1299 cells [1]; [11]
  effect on H1299 cell proliferation: significantly inhibited H1299 cell proliferation in a concentration-dependent manner

## CNC1(C)C2CCC(C2)C1(C)C (stereo not drawn) [mecamylamine]
H1299 cells [1]; [11]
  effect on H1299 cell proliferation: no obvious effects on cell proliferation

## CC(=O)OCC[N+](C)(C)C [ACh, Acetylcholine, reference compound]
H1299 cells [2]; ACh 1, 10 and 100 µM, 72 h
  effect of exogenous ACh alone on H1299 cell growth: no significant effects on H1299 cell growth
H1299 cells [2]; [12]
  viability at 1 µM: 102 ± 1.8%
  viability at 10 µM: 105 ± 2.74%
  viability at 100 µM: 99 ± 2.72%

## CCN(CC)CC1CCCCN1CC(=O)N1c2ccccc2C(=O)Nc2cccnc21 (stereo not drawn) [AF-DX116]
H1299 cells [1]; [11]
  effect on H1299 cell proliferation: inhibition on cell proliferation at the highest concentration tested

## O[C@@](CO[C@H]1C[N+]2(C3CC3)CCC1CC2)(c1ccccc1)C1CCCC1 [R2HBJJ]
H1299 cells [3]; [12]
  viability at 8 µM: 83.5%
  viability at 16 µM: 57.4%
H1299 cells [3]; M3 siRNA treated H1299 cells, R2HBJJ 8 µM and 16 µM, 72 h
  effect on cell growth after M3 siRNA transfection: didn't further influence the cell growth
A549 cells
  GI50: > 100000 nM
[4]; [13]
  IC50: 1.47 nM
[4]; [14]
  Ki: 0.106 nM
BEP2D cells
  GI50: > 100000 nM
[5]; H1299, 20 µM, 3–60 h
  levels of cyclin D1, CDK4 and CDK6 proteins: dramatic down-regulation
  levels of cyclin E and CDK2: remained basically unaltered
  phosphorylation of Rb (particularly at Ser807/811): decreased time-dependently
[5]; H1299, 48 h, 1.25–20 µM tested
  lowest concentration at which decrease of Rb phosphorylated at Ser807/811 occurred: 1.25 µM
H460 cells
  GI50: 8800 nM
H1299 cells [2]; Homo sapiens, NCI-H1299, 72 h, read-out: cell viability, R2HBJJ 10 µM, ACh 0 µM, H1299, 72 h
  viability at 10 µM: 54.1 ± 3.89%
H1299 cells [2]; Homo sapiens, NCI-H1299, 72 h, read-out: cell viability, R2HBJJ 20 µM, ACh 0 µM, H1299, 72 h
  viability at 20 µM: 23.2 ± 2.14%
H1299 cells [2]; Homo sapiens, NCI-H1299, read-out: cell viability, R2HBJJ 10 µM, ACh 1 µM added 1 h before, H1299, 72 h
  viability at 10 µM: 55 ± 6.79%
H1299 cells [2]; Homo sapiens, NCI-H1299, read-out: cell viability, R2HBJJ 10 µM, ACh 10 µM added 1 h before, H1299, 72 h
  viability at 10 µM: 82.3 ± 5.82%
H1299 cells [2]; Homo sapiens, NCI-H1299, read-out: cell viability, R2HBJJ 10 µM, ACh 100 µM added 1 h before, H1299, 72 h
  viability at 10 µM: 91.1 ± 3.65%
H1299 cells [2]; Homo sapiens, NCI-H1299, read-out: cell viability, R2HBJJ 20 µM, ACh 1 µM added 1 h before, H1299, 72 h
  viability at 20 µM: 24.1 ± 1.94%
H1299 cells [2]; Homo sapiens, NCI-H1299, read-out: cell viability, R2HBJJ 20 µM, ACh 10 µM added 1 h before, H1299, 72 h
  viability at 20 µM: 35.6 ± 4.48%
H1299 cells [2]; Homo sapiens, NCI-H1299, read-out: cell viability, R2HBJJ 20 µM, ACh 100 µM added 1 h before, H1299, 72 h
  viability at 20 µM: 58.5 ± 2.83%
[6]; [13]
  IC50: 1.61 nM
[6]; [14]
  Ki: 0.264 nM
H1299 cells [7]; 48 h (Fig. 7B, concentration series), control 39.60%
  percentage of G0/G1 phase: 70.01%
H1299 cells [7]; 72 h (Fig. 7A), control 40.35%
  percentage of G0/G1 phase: 76.60%
H1299 cells [7]; 72 h (Fig. 7A), control 46.14%
  percentage of S phase: 15.93%
[8]
  IC50: 0.739 nM
  Ki: 0.0786 nM
[9]
  IC50: 0.38 nM
  Ki: 0.0679 nM
[10]; [13]
  IC50: 5.33 nM
[10]; [14]
  Ki: 1.33 nM
H157 cells
  GI50: 28500 nM
H1299 cells [1]; H1299, 72 h, SRB
  inhibitory potency relative to darifenacin: about 3.7 fold
H1299 cells [1]; [11]
  effect on H1299 cell proliferation: significantly inhibited H1299 cell proliferation in a concentration-dependent manner
H1299 cells [1]; Homo sapiens, NCI-H1299, read-out: 50% growth-inhibitory concentration (GI50), H1299, 72 h, SRB
  GI50: 8500 nM

## O[C@@](CO[C@H]1CN2CCC1CC2)(c1ccccc1)C1CCCC1 [R2-PHC]
H1299 cells [1]; H1299, 72 h, SRB
  inhibitory potency relative to darifenacin: about 3.7 fold
H1299 cells [1]; [11]
  effect on H1299 cell proliferation: significantly inhibited H1299 cell proliferation in a concentration-dependent manner
